Test results published in ChEMBL document CHEMBL1123432, “Methotrexate analogues. 28. Synthesis and biological evaluation of new gamma-monoamides of aminopterin and methotrexate” (J Med Chem, 1986).
Values joined by “and” are separate entries in the source; they are usually repeats but may differ in a detail not shown here. Equal entries are not always repeated.

Key:
Homo sapiens [1] = species on record: Homo sapiens; experiment: Compound was tested for its inhibitory concentration against human leukemic lymphoblasts (CEM Cells); assay type: functional; settings: CCRF-CEM
L1210 [2] = experiment: cells; settings: Mus musculus
Description: Compound was tested for its inhibitory concentration to inhibit the growth of wild type L1210 cells; Range=0.01 to 0.03

Homo sapiens [3] = species on record: Homo sapiens; experiment: Compound was tested for its inhibitory concentration against human leukemic lymphoblasts (CEM Cells) and a resistant subline (CEM / MTX).; assay type: functional; settings: CCRF-CEM
L1210 [4] = experiment: Compound was tested for its inhibitory concentration to inhibit the growth of wild type L1210 cells and a subline (L1210 / R81).; assay type: functional, cell-based; settings: Mus musculus
Mus musculus [5] = experiment: Increase in life span of mice with L1210 leukemia cells at a dose of 80 mg/kg; Toxic; assay type: functional, organism-based; set-up: dose 80 mg/kg
L1210 [6] = experiment: Compound was tested for its inhibitory concentration to inhibit the growth of wild type L1210 cells.; assay type: functional, cell-based, Mus musculus
Dihydrofolate reductase [7] = molecular target: T1, Dihydrofolate reductase (Mus musculus, UniProt P00375); experiment: biochemical
T1 sequence (P00375 whole entry): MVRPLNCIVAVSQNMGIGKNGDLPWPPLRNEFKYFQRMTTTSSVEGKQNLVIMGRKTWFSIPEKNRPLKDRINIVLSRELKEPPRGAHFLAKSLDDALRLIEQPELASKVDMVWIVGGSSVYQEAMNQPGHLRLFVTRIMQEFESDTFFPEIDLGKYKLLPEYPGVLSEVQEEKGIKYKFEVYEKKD
Description: Compound was tested for its inhibitory concentration to inhibit the enzyme Dihydro Folate Reductase (DHFR) from murine L1210 leukemia cells.

Mus musculus [8] = species on record: Mus musculus; experiment: Compound was tested against weight change in mice with L1210 leukemia cells on 10 th Day at Dose 70 mg / kg; settings: at 70 mg/kg
Mus musculus [9] = experiment: Median Survival days of mice infected with L1210 leukemia cells at dose 60 mg/kg relative to that of 10 days for control; assay type: functional
Mus musculus [10] = species on record: Mus musculus; experiment: Compound was tested against weight change in mice with L1210 leukemia cells on 10 th Day at Dose 50 mg / kg; settings: at 50 mg/kg
Mus musculus [11] = experiment: Median Survival days of mice infected with L1210 leukemia cells at dose 70 mg/kg relative to that of 10 days for control; assay type: functional
Mus musculus [12] = experiment: Median Survival days of mice infected with L1210 leukemia cells at dose 50 mg/kg relative to that of 10 days for control; assay type: functional
Mus musculus [13] = experiment: Increase in life span of mice with L1210 leukemia cells at a dose of 80 mg/kg; assay type: functional
Mus musculus [14] = experiment: Median Survival days of mice infected with L1210 leukemia cells at dose 70 mg/kg relative to that of 10 days for control; Toxic; assay type: functional, organism-based; set-up: dose 70 mg/kg
Mus musculus [15] = experiment: Increase in life span of mice with L1210 leukemia cells at a dose of 50 mg/kg; assay type: functional
[16] = molecular target: T2, Dihydrofolate reductase (Mus musculus) (UniProt P00375); settings: L1210
T2 sequence (whole entry): T1 sequence (P00375 whole entry)
Description: Compound was tested for inhibition of the enzyme DiHydroFolate Reductase (DHFR) from murine L1210 leukemia cells

Mus musculus [17] = species on record: Mus musculus; experiment: Compound was tested against weight change in mice with L1210 leukemia cells on 10 th Day at Dose 80 mg / kg; settings: at 80 mg/kg
Mus musculus [18] = species on record: Mus musculus; experiment: Compound was tested against weight change in mice with L1210 leukemia cells on 10 th Day at Dose 60 mg / kg; settings: at 60 mg/kg
Mus musculus [19] = experiment: Median Survival days of mice infected with L1210 leukemia cells at dose 80 mg/kg relative to that of 9 days for control; assay type: functional
Homo sapiens [20] = species on record: Homo sapiens; experiment: Compound was tested for its inhibitory concentration against human leukemic lymphoblasts (CEM Cells); Mean of two assays; assay type: functional; settings: CCRF-CEM
Mus musculus [21] = species on record: Mus musculus; experiment: Compound was tested against weight change in mice with L1210 leukemia cells on 10 th Day at Dose 20 mg / kg; settings: at 20 mg/kg
Mus musculus [22] = experiment: Median Survival days of mice infected with L1210 leukemia cells at dose 40 mg/kg relative to that of 9 days for control; assay type: functional
Mus musculus [23] = experiment: Increase in life span of mice with L1210 leukemia cells at a dose of 20 mg/kg; assay type: functional
Mus musculus [24] = experiment: Increase in life span of mice with L1210 leukemia cells at a dose of 40 mg/kg; assay type: functional
Mus musculus [25] = species on record: Mus musculus; experiment: Compound was tested against weight change in mice with L1210 leukemia cells on 10 th Day at Dose 40 mg / kg; settings: at 40 mg/kg
L1210 [26] = experiment: Compound was tested for its inhibitory concentration to inhibit the growth of wild type L1210 cells and a subline (L1210 / R81); Mean of two assays; assay type: functional, cell-based; settings: Mus musculus
Mus musculus [27] = experiment: Median Survival days of mice infected with L1210 leukemia cells at dose 20 mg/kg relative to that of 9 days for control; assay type: functional
L1210 [28] = experiment: Compound was tested for its inhibitory concentration to inhibit the growth of wild type L1210 cells; assay type: functional, cell-based; settings: Mus musculus
Dihydrofolate reductase [29] = molecular target: T1, Dihydrofolate reductase; experiment: Compound was tested for its inhibitory concentration to inhibit the enzyme Dihydro Folate Reductase ( DHFR ) from murine L1210 leukemia cells.; assay type: cell-based
L1210 [30] = experiment: Compound was tested for its inhibitory concentration to inhibit the growth of wild type L1210 cells and a subline ( L1210 / R81 ).; assay type: functional, cell-based; settings: Mus musculus
Mus musculus [31] = species on record: Mus musculus; experiment: Compound was tested against weight change in mice with L1210 leukemia cells on 10 th Day at Dose 7.5 mg / kg; settings: at 7.5 mg/kg
Mus musculus [32] = species on record: Mus musculus; experiment: Compound was tested against weight change in mice with L1210 leukemia cells on 7 th Day at Dose 10 mg / kg; assay type: functional; settings: at 10 mg/kg
Mus musculus [33] = experiment: Median Survival days of mice infected with L1210 leukemia cells at dose 20 mg/kg relative to that of 9 days for control in expt 1; assay type: functional
Mus musculus [34] = experiment: Increase in life span of mice with L1210 leukemia cells at a dose of 15 mg/kg in exp 2; assay type: functional
Mus musculus [35] = experiment: Increase in life span of mice with L1210 leukemia cells at a dose of 7.5 mg/kg in exp 2; assay type: functional
Mus musculus [36] = experiment: Median Survival days of mice infected with L1210 leukemia cells at dose 15 mg/kg relative to that of 10 days for control in expt 2; assay type: functional
Mus musculus [37] = experiment: Median Survival days of mice infected with L1210 leukemia cells at dose 10 mg/kg relative to that of 9 days for control in expt 1; assay type: functional
Mus musculus [38] = experiment: Median Survival days of mice infected with L1210 leukemia cells at dose 10 mg/kg relative to that of 10 days for control in expt 2; assay type: functional
Mus musculus [39] = experiment: Median Survival days of mice infected with L1210 leukemia cells at dose 7.5 mg/kg relative to that of 10 days for control in expt 2; assay type: functional
Homo sapiens [40] = species on record: Homo sapiens; experiment: Compound was tested for its inhibitory concentration against human leukemic lymphoblasts (CEM Cells) and a resistant subline (CEM / MTX); Mean of two assays; assay type: functional; settings: CCRF-CEM
Mus musculus [41] = experiment: Increase in life span of mice with L1210 leukemia cells at a dose of 10 mg/kg in exp 2; assay type: functional
Mus musculus [42] = species on record: Mus musculus; experiment: Compound was tested against weight change in mice with L1210 leukemia cells on 7 th Day at Dose 15 mg / kg; assay type: functional; settings: at 15 mg/kg

Work on CN(Cc1cnc2nc(N)nc(N)c2n1)c1ccc(C(=O)N[C@@H](CCC(=O)O)C(=O)O)cc1 [METHOTREXATE] yielded an IC50 (Homo sapiens [1]) of 32 nM, an IC50 (L1210 [2]) of 30 nM and an IC50 (Homo sapiens [3]) of 6600 nM.
In the case of Nc1nc(N)c2nc(CNc3ccc(C(=O)NC(CCC(=O)NCc4ccc(Cl)c(Cl)c4)C(=O)O)cc3)cnc2n1 (configuration not stated), the IC50 (L1210 [4]) is reported as 32000 nM, the ILS (Mus musculus [5]) is reported as “Toxic” and the IC50 (L1210 [6]; Mus musculus, L1210) is reported as 46 nM. The IC50 (L1210 [6]; l1210) was 34 nM, the IC50 (Dihydrofolate reductase [7]) was 130 nM and the Weight change (Mus musculus [8]) was -3%. The Survival (Mus musculus [9]) was 17 days, the Weight change (Mus musculus [10]) was 2% and the Survival (Mus musculus [11]) was 21 days. The Survival (Mus musculus [12]) was 15 days, the ILS at 80 mg/kg (Mus musculus [13]) was 50% and the Survival (Mus musculus [14]) was “Toxic”. The ILS at 50 mg/kg (Mus musculus [15]) was 70%, the IC50/[E] [16] was 3.3 and the Weight change (Mus musculus [17]) was -16%. For the same compound, the Weight change (Mus musculus [18]) was 0%.
Compound CC(C)(C)NC(=O)CCC(NC(=O)c1ccc(NCc2cnc3nc(N)nc(N)c3n2)cc1)C(=O)O (configuration not stated) has an IC50 (L1210 [6]; Mus musculus, L1210) of 120 nM, an IC50 (Dihydrofolate reductase [7]) of 44 nM and a Survival (Mus musculus [19]) of 11 days. It also gave an IC50 (Homo sapiens [20]) of 5800 nM, a Weight change (Mus musculus [21]) of 17% and a Survival (Mus musculus [22]) of 10 days. It also gave an ILS at 20 mg/kg (Mus musculus [23]) of 0%, an ILS at 40 mg/kg (Mus musculus [24]) of 11% and an ILS at 80 mg/kg (Mus musculus [13]) of 22%. For the same compound, the IC50/[E] [16] was 1.1, the Weight change (Mus musculus [25]) was 7% and the Weight change (Mus musculus [17]) was 9%. For the same compound, the IC50 (L1210 [26]) was 22000 nM, the Survival (Mus musculus [27]) was 9 days and the IC50 (Homo sapiens [3]) was 36000 nM. For the same compound, the IC50 (L1210 [28]) was 32 nM.
In the case of CN(Cc1cnc2nc(N)nc(N)c2n1)c1ccc(C(=O)NC(CCC(=O)Nc2ccc(O)c(O)c2)C(=O)O)cc1 (configuration not stated), the IC50 (L1210 [6]; l1210) is reported as 30 nM and 8.4 nM, the IC50 (Dihydrofolate reductase [29]) is reported as 31 nM and the IC50 (L1210 [30]) is reported as 38000 nM.
Compound Nc1nc(N)c2nc(CNc3ccc(C(=O)NC(CCC(=O)Nc4ccccc4)C(=O)O)cc3)cnc2n1 (configuration not stated) has an IC50 (L1210 [4]) of 10000 nM, an IC50 (L1210 [6]; Mus musculus, L1210) of 3.5 nM and an IC50 (L1210 [6]; l1210) of 3.6 nM. For the same compound, the IC50 (Dihydrofolate reductase [7]) was 60 nM, the Weight change (Mus musculus [31]) was 4% and the IC50 (Homo sapiens [20]) was 180 nM. The Weight change (Mus musculus [32]) was 17% and 6%, the Survival (Mus musculus [33]) was 12 days and the ILS at 15 mg/kg (Mus musculus [34]) was 30%. The ILS at 7.5 mg/kg (Mus musculus [35]) was 30%, the Weight change (Mus musculus [21]) was 0% and the Survival (Mus musculus [36]) was 13 days. It also gave a Survival (Mus musculus [37]) of 12 days, a Survival (Mus musculus [38]) of 15 days and a Survival (Mus musculus [39]) of 13 days. It also gave an IC50/[E] [16] of 1.5, an IC50 (Homo sapiens [40]) of 4700 nM and an ILS at 10 mg/kg (Mus musculus [41]) of 50%. For the same compound, the Weight change (Mus musculus [42]) was 2%.
